According to ChEMBL document CHEMBL4321837, “Discovery of Potent and Orally Effective Dual Janus Kinase 2/FLT3 Inhibitors for the Treatment of Acute Myelogenous Leukemia and Myeloproliferative Neoplasms” (J Med Chem, 2019):

Experiments:
[1] = biological target: T1, Tyrosine-protein kinase JAK3 (Homo sapiens) (UniProt P52333); assay: Inhibition of human JAK3 (781 to end residues) assessed as residual activity at 100 nM using GGEEEEYFELVKK as substrate after 40 mins in presence of [gamma33P]-ATP by scintillation counting based radiometric assay relative to control
T1 sequence (whole entry): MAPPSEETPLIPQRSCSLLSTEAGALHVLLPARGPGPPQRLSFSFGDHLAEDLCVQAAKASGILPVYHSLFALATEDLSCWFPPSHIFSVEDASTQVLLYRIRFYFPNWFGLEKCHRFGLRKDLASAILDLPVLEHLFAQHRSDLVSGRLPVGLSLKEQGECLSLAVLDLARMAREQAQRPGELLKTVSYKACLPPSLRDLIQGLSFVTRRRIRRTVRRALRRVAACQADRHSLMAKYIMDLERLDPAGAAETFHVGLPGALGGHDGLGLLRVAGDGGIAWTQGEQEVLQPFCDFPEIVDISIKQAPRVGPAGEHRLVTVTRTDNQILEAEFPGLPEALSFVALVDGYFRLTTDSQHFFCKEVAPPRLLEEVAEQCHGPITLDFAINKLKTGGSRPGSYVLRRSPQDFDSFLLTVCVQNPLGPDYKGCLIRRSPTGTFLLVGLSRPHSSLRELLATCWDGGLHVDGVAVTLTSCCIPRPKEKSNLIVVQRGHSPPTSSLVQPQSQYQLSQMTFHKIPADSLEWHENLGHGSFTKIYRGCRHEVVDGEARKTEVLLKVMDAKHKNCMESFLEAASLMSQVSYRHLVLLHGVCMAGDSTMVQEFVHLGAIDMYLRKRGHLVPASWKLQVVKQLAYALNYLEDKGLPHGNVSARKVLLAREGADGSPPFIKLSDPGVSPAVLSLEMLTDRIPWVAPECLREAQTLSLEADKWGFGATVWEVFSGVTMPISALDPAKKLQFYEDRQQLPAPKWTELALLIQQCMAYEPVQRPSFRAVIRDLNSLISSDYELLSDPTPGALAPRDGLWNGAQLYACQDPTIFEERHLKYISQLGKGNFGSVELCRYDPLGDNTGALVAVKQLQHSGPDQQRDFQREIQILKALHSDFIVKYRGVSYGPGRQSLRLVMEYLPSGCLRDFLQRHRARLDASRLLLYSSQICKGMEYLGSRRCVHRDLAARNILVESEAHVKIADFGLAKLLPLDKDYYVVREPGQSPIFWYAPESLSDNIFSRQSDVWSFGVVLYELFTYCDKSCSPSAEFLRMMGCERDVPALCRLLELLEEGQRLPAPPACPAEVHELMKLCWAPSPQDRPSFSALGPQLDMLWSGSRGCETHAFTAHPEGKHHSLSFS

[2] = biological target: Receptor-type tyrosine-protein kinase FLT3 (Homo sapiens) (UniProt P36888); assay: Inhibition of human FLT3 (564 to end residues) assessed as residual activity at 100 nM using EAIYAAPFAKKK as substrate after 40 mins in presence of [gamma33P]-ATP by scintillation counting based radiometric assay relative to control
[3] = biological target: T2, Tyrosine-protein kinase JAK1 (Homo sapiens, UniProt P23458); assay: Inhibition of human JAK1 (866 to end residues) GEEPLYWSFPAKK as substrate after 40 mins in presence of [gamma33P]-ATP by scintillation counting based radiometric assay
T2 sequence (P23458 whole entry): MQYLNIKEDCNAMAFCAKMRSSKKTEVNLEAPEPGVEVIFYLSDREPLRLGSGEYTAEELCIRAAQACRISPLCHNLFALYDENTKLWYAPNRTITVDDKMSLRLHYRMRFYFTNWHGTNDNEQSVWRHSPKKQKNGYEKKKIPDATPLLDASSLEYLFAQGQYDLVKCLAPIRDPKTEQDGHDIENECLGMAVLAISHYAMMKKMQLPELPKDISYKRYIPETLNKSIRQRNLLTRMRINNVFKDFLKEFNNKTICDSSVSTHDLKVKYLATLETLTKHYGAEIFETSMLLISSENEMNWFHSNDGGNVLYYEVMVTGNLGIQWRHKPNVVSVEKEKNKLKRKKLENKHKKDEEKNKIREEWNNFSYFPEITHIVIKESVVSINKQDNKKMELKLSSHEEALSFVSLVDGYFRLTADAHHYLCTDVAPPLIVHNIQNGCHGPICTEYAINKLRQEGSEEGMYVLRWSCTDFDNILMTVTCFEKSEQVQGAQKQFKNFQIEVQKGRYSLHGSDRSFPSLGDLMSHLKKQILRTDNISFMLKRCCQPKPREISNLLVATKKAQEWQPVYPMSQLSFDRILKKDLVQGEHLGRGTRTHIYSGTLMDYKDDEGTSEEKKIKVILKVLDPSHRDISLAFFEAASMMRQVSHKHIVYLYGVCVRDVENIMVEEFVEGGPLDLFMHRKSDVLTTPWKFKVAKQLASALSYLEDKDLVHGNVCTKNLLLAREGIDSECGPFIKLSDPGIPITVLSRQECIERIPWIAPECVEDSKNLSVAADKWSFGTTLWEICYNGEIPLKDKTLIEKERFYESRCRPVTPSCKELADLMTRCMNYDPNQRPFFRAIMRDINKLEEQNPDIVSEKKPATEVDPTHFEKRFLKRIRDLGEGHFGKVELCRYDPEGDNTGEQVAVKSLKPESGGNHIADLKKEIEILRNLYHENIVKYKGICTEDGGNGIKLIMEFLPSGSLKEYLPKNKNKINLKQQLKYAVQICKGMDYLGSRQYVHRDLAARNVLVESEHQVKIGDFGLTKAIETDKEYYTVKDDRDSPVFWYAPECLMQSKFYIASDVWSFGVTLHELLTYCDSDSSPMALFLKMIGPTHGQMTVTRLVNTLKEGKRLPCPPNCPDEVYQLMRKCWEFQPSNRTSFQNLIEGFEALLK

[4] = biological target: T3, Tyrosine-protein kinase JAK3 (Homo sapiens, UniProt P52333); assay: Inhibition of human JAK3 (781 to end residues) using GGEEEEYFELVKK as substrate after 40 mins in presence of [gamma33P]-ATP by scintillation counting based radiometric assay
T3 sequence (P52333 whole entry): T1 sequence (whole entry)

[5] = Tmax in Sprague-Dawley rat at 5 mg/kg, po measured up to 24 hrs by LC/MS/MS analysis; format: ADME, organism-based; conditions: in vivo, 24 h
[6] = AUC (0 to t) in Sprague-Dawley rat at 5 mg/kg, po measured up to 24 hrs by LC/MS/MS analysis; format: ADME, organism-based; set-up: dose 5 mg/kg, time < 24 hr, route oral; conditions: in vivo, 24 h
[7] = biological target: Vascular endothelial growth factor receptor 1 (Homo sapiens, UniProt P17948); assay: Inhibition of recombinant human FLT1 (783 to end residues) using KKKSPGEYVNIEF as substrate incubated for 40 mins in presence of [gamma33P]-ATP by scintillation counting based radiometry assay
Sequence of Vascular endothelial growth factor receptor 1 (P17948 whole entry, the tested form may be a part): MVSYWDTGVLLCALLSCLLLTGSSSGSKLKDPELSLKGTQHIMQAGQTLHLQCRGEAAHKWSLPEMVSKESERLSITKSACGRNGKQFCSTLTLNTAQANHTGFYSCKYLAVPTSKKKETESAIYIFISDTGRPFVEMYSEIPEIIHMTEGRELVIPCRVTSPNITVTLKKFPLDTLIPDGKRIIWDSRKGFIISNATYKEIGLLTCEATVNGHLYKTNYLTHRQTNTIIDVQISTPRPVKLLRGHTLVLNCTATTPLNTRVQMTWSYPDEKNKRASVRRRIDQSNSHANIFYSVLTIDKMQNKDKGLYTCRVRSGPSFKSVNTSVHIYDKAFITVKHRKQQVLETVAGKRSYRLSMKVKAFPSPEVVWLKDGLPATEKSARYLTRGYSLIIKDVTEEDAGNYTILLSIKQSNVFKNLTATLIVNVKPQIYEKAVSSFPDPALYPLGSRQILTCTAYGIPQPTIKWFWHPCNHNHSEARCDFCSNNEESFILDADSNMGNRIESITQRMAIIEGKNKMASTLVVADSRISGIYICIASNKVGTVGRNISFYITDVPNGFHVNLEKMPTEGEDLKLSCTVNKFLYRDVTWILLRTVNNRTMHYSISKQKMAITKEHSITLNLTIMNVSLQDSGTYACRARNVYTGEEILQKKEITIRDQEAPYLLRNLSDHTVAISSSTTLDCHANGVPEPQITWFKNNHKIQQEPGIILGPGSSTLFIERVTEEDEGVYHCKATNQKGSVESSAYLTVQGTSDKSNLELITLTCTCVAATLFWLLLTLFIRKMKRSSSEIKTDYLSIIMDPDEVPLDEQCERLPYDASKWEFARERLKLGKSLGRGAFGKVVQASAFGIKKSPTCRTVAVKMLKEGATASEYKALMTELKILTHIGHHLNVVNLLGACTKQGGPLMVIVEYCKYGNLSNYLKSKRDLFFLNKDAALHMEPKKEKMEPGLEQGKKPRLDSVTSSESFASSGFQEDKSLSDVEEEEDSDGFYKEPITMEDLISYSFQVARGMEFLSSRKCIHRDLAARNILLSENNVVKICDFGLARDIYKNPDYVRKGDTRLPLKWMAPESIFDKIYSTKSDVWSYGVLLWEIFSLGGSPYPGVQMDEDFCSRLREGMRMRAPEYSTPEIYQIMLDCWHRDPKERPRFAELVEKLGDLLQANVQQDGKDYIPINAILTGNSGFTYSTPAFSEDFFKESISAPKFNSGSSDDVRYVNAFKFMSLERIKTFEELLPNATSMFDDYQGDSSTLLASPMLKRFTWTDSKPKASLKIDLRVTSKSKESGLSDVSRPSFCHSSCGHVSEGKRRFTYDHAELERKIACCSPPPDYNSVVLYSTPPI

[8] = biological target: Vascular endothelial growth factor receptor 3 (Homo sapiens, UniProt P35916); assay: Inhibition of recombinant human FLT4 (800 to 1297 residues) using poly(Glu:Tyr) as substrate incubated for 30 mins in presence of [gamma33P]-ATP by scintillation counting based radiometry assay
Sequence of Vascular endothelial growth factor receptor 3 (P35916 whole entry, the tested form may be a part): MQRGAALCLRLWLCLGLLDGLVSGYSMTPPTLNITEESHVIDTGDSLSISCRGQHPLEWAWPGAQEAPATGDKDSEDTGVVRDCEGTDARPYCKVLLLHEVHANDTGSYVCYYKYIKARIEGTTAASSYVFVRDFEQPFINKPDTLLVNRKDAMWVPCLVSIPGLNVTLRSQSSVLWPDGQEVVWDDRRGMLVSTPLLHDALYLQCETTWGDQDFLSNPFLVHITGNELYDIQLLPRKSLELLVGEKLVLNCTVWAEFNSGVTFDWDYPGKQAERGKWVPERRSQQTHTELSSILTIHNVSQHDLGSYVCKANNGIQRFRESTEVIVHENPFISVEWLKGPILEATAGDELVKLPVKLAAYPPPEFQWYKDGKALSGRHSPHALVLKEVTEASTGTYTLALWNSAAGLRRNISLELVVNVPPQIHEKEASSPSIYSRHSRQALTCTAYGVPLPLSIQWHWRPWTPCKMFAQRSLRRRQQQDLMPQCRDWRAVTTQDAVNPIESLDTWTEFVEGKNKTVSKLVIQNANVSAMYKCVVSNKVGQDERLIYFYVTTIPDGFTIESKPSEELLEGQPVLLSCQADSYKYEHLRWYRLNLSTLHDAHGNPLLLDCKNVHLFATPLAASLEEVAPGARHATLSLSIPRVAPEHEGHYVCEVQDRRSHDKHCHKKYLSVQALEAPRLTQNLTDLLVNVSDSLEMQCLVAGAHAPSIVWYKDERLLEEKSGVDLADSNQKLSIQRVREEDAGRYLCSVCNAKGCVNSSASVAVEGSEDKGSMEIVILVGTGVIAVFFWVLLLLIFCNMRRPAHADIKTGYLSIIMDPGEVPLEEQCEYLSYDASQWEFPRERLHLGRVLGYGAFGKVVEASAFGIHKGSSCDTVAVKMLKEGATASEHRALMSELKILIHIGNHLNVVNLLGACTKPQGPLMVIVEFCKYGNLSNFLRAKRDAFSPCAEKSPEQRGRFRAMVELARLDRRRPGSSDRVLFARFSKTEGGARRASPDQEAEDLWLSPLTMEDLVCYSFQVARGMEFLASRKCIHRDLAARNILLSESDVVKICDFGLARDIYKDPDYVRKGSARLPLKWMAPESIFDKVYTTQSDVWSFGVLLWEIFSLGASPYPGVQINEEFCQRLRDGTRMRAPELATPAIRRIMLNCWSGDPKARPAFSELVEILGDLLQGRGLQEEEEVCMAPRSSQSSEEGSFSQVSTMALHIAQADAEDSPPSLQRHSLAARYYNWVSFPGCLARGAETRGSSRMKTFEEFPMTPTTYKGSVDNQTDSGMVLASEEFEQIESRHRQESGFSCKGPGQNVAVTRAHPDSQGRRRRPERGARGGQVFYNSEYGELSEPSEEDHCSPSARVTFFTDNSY

[9] = biological target: Tyrosine-protein kinase Lck (Homo sapiens, UniProt P06239); assay: Inhibition of recombinant human full length human LCK using KVEKIGEGTYGVV as substrate incubated for 40 mins in presence of [gamma33P]-ATP by scintillation counting based radiometry assay
Sequence of Tyrosine-protein kinase Lck (P06239 whole entry): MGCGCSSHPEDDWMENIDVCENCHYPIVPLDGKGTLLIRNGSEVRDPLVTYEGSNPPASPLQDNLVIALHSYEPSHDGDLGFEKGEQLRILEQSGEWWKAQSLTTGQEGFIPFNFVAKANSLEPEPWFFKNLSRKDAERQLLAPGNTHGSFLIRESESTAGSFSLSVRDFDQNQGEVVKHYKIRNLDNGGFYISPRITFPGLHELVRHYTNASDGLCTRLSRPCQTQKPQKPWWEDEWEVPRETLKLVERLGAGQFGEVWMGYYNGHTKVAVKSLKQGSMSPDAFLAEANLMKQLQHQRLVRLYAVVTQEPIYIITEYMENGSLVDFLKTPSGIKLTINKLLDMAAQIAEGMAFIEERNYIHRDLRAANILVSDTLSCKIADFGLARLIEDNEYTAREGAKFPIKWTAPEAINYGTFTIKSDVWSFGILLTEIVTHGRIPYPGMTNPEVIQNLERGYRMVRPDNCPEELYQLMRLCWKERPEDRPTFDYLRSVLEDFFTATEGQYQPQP

IEC-6 = assay: Cytotoxicity against rat IEC-6 cells assessed as cell viability after 72 hrs by MTT assay; format: cell-based; conditions: iec-6, 72 h
[10] = biological target: T2, Tyrosine-protein kinase JAK1; assay: Inhibition of JAK1 in human PBMC cells assessed as reduction in IL-6-induced STAT3 phosphorylation by flow cytometry; format: cell-based
Cytochrome P450 2C9 = Cytochrome P450 2C9 (Homo sapiens, UniProt P11712); assay: Inhibition of CYP2C9 (unknown origin); format: ADME
Cytochrome P450 2D6 = Cytochrome P450 2D6 (Homo sapiens, UniProt P10635); assay: Inhibition of CYP2D6 (unknown origin); format: ADME
Sequence of Cytochrome P450 2D6 (P10635 whole entry): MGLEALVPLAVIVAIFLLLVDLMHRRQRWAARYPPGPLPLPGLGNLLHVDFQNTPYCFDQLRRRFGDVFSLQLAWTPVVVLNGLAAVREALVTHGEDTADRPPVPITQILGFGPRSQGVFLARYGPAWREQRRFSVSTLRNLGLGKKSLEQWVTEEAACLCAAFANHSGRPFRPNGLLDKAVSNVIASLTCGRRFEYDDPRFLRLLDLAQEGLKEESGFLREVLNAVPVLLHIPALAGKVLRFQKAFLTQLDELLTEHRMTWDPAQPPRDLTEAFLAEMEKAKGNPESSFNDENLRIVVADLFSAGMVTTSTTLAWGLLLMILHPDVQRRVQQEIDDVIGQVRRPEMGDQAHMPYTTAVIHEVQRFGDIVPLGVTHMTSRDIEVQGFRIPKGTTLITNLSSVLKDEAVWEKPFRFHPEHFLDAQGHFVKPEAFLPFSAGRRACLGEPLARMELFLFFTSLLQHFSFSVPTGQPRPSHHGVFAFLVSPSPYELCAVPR

MV4-11 [11] = assay: Induction of cell cycle arrest in human MV4-11 cells assessed as accumulation at G0/G1 phase at 0.005 uM after 24 hrs by propidium iodide staining based flow cytometry analysis (reference value: 54.49%); format: functional
MV4-11 [12] = assay: Induction of cell cycle arrest in human MV4-11 cells assessed as accumulation at S phase at 0.005 uM after 24 hrs by propidium iodide staining based flow cytometry analysis (reference value: 30.11%); format: functional
MV4-11 [13] = assay: Induction of cell cycle arrest in human MV4-11 cells assessed as accumulation at G2/M phase at 0.05 uM after 24 hrs by propidium iodide staining based flow cytometry analysis (reference value: 15.4%); format: functional
MV4-11 [14] = assay: Induction of apoptosis in human MV4-11 cells assessed as late apoptotic cells at 0.05 uM after 24 hrs by Annexin V FITC/PI staining based flow cytometry analysis (reference value: 1.38%); format: functional
MV4-11 [15] = assay: Induction of apoptosis in human MV4-11 cells assessed as viable cells at 0.2 uM after 24 hrs by Annexin V FITC/PI staining based flow cytometry analysis (reference value: 96.3%); format: functional; conditions: MV4-11, 24 h, read-out: Activity
MV4-11 [16] = assay: Induction of apoptosis in human MV4-11 cells assessed as early apoptotic cells at 0.4 uM after 24 hrs by Annexin V FITC/PI staining based flow cytometry analysis (reference value: 2.14%); format: functional
MV4-11 [17] = assay: Induction of apoptosis in human MV4-11 cells assessed as late apoptotic cells at 0.4 uM after 24 hrs by Annexin V FITC/PI staining based flow cytometry analysis (reference value: 1.38%); format: functional

Question: With `Cc1cnc(Nc2ccc(N3CCC(N(C)CCO)CC3)c(F)c2)nc1-c1cnn(C(C)C)c1` as the compound, how does the Activity [1] read?
Answer: 36%

Question: And the Activity [2]?
Answer: 4%

Question: What about the IC50 [3] of the same compound?
Answer: 26 nM

Question: What about the IC50 [4] of the same compound?
Answer: 39 nM

Question: What about the Tmax [5] of the same compound?
Answer: 1.5 h

Question: What about the AUCt [6] of the same compound?
Answer: 2552 ng·h/mL

Question: And the IC50 [7]?
Answer: 22 nM

Question: And the IC50 [8]?
Answer: 8 nM

Question: And the IC50 [9]?
Answer: 27 nM

Question: And the Activity (IEC-6)?
Answer: Non-Toxic

Question: And the IC50 [10]?
Answer: 94.2 nM

Question: What about the IC50 (Cytochrome P450 2C9) of the same compound?
Answer: 78100 nM

Question: And the IC50 (Cytochrome P450 2D6)?
Answer: > 100000 nM

Question: And the Activity (MV4-11 [11])?
Answer: 55.92%

Question: And the Activity (MV4-11 [12])?
Answer: 28.22%

Question: And the Activity (MV4-11 [13])?
Answer: 5.51%

Question: And the Activity (MV4-11 [14])?
Answer: 4.55%

Question: What about the viability at 0.2 µM (MV4-11 [15]) of the same compound?
Answer: 77.4%

Question: What about the Activity (MV4-11 [16]) of the same compound?
Answer: 21.2%

Question: And the Activity (MV4-11 [17])?
Answer: 26.5%
